Consider five compounds from article PMC5665932, “A novel peptide that improves metabolic parameters without adverse central nervous system effects” (Scientific Reports, 2017).

One data set relates to UCP1. The data set is described as follows: UCP1 expression in 3T3-L1 differentiated adipocytes (Western blot). It counts as cell-based. The note with it: for expression of UCP1 in 3T3-L1 adipose cells: 24 h treatment. On the procedure: 3T3-L1 pre-adipocytes (American Type Culture Collection, Rockville, MD, USA) were cultured in complete medium comprising of DMEM (Dulbecco’s Modified Eagle Medium), containing 10% fetal bovine serum (Life Technologies, Carlsbad, CA, USA), 0.11 mg/mL pyruvate, 0.025 g/L penicillin (Sigma-Aldrich, Saint Louis, MO, USA) and 0.1 g/L streptomycin (Life Technologies, Carlsbad, CA, USA) at 37 °C and 5% CO2. For the experiments analyzing UCP1 expression, 3T3-L1 cells were seeded in 12-well plates at a confluence of 10 × 10^4 cells/mL/well. One day later, cells were differentiated using normal culture medium supplemented with 500 μM isobutylmethylxanthine (Sigma, St. Louis, MO, USA), 1 μM dexamethasone (Sigma, St. Louis, MO, USA), and 0.85 μg/mL bovine insulin (Sigma, St. Louis, MO, USA). After three days, the differentiation medium was changed to normal culture medium supplemented with 0.85 μg/mL bovine insulin. The fresh medium was renewed every 2 days. After 12 days of differentiation, cells were exposed for 24 h with either 5 µM rosiglitazone (RSG, Sigma, St. Louis, MO, USA), HP or Pep19 at different concentrations or with vehicle (normal culture medium plus protease inhibitor cocktail (Roche, Germany). Subsequent experiments were performed after preincubation for 2 min with and in the absence of either 5 µM rosiglitazone, 1 µM […], 1 µM AM251, 1 µM HP or vehicle (normal culture medium plus protease inhibitor cocktail (Roche, Germany) with subsequent addition of 1 µM Pep19 in medium. For Western-blot assays, cells were washed twice with ice-cold PBS, the supernatant was removed, and cells were lysed with 40 µL Laemmli buffer, transfered to tubes, sonicated and heated 95 °C during 5 min. Samples were kept at −20 °C till use. Before using, samples were thawed on ice, centrifuged, and proteins were separated on a 12% SDS-PAGE, followed by transfer to PVDF membranes (Merck Millipore, Darmstadt, Germany). […] Bands were visualized with Super-Signal West Pico Chemiluminescent substrate (Thermo Scientific) and quantified using ImageJ 1.49.
A general note: In western blotting, separated proteins are transferred to a membrane and probed.

In the next data set the test system is Male Wistar rats. The experiment in a line: Forced swim test. It counts as in vivo. Conditions: first 5 min of the swim test, n = 6/group (Pep19), n = 8–10/group (rimonabant). The procedure:
The forced swim test was based on previous designs. Male Wistar rats were placed in a cylindrical plexiglass tank (50 cm high and 30 cm diameter) filled with water (19 °C) up to a level of 25 cm from the bottom. The animal’s behavior during the first 5 min of the swim test was scored by a trained observer and the following measures were taken: (1) time spent swimming, defined as movements of all four limbs, swimming around the tank or diving and (2) time spent floating, defined as the time the animal remained immobile with only occasional slight movements to keep the body balanced and the nose above the water.

The test system of data set [1] is DIO Wistar rats. The experiment in a line: Diet-induced obesity model: body weight, food intake, adipose tissue masses, adiposity index. It counts as in vivo. Conditions: oral by gavage, 100 µg/Kg, mean ± SEM. The procedure: (§1) For the diet-induced obesity (DIO) model, male Wistar rats received instead of water a 20% sucrose solution for 13 consecutive weeks. All animals including controls received food ad libitum. Pep19 was administrated orally by gavages. After 13 weeks of treatment all rats were sacrificed by decapitation (after overnight fasting). Blood from the trunk was collected into tubes without anticoagulants and immediately centrifuged (3000 x g for 15 min at 4 °C), and serum was stored at −20 °C. Blood serum was used for all biochemical determinations. The adipose tissues masses were used to calculate the adiposity index (the percentage of the sum of all white adipose tissue pads in relation to total body weight).

In data set [2] the test system is DIO Wistar rats. The experiment in a line: Diet-induced obesity model: serum/blood biochemical determinations. Conditions: oral by gavage, 100 µg/Kg, mean ± SEM. It is filed as in vivo. The procedure:
as §1
Serum cholesterol and triglycerides were quantified enzymatically using commercial kits from Labtest Diagnóstica (Triglicerides Liquiform andLiquiform, Lagoa Santa, MG, Brazil). Insulin levels were determined using specific rat radioimmunoassay kits (Millipore Corporation, Billerica, MA, USA). Blood glucose concentration was measured by a glucometer (Advantage, Roche Diagnostics Corporation, Indianapolis, USA).

The next data set deals with C57BL/6J mice. The experiment in a line: Tetrad cannabinoid tests (catalepsy, tail temperature, locomotor activity, hot plate). Conditions: n = 6/group. It is filed as in vivo. On the procedure: C57BL/6J mice were treated i.p. with Pep19 (0.1 or 1 mg/kg), the CB1R agonist WIN55,212-2 (5 mg/kg) or vehicle (n = 6 per group) and evaluated in the tetrad cannabinoid tests. Another group of animals received Pep19 (0.1 or 1 mg/kg) or saline i.p. for 10 days, once a day. In the last day of treatment the animals were subjected to the tetrad cannabinoid tests 30 minutes after the i.p. administration. The CB1 agonist WIN55,212-2 (5 mg/kg) was administrated i.p. 30 minutes before the experiments as a positive control (n = 6 per group).
It was assayed by the bar test[40], 30 min after drug administration. Briefly, each mouse was placed on a bar oriented parallel to and approximately 4 cm above the bench surface. Cataleptic behavior was defined as the time the animal remained motionless holding on to the bar; cutoff = 300 s[41].
It was determined by using a thermal probe (Thermocom®, Nashua, NH 03062, EUA) positioned 50 cm of the animal. The mean of five pictures of five different tail regions was compared between a basal evaluation and another observation 35 min after drug administration.
It was determined by an open field test, in which a mouse was placed in a circular cage (40 cm diameter), 37 min after drug administration. The distance traveled by the animal was recorded for 10 min by the software ANY-MAZE (Stoelting).
The mouse was placed on a heated plate at 56 °C. An experimenter measured the time it took for the mouse to lick the paws or jump off of the hot plate; cutoff = 30 s[42]. The variation between a basal evaluation and another one taken 45 min after drug administration was defined as the result.

A further data set has as its system c-Fos. The data set is described as follows: Mice brain c-Fos protein immunohistochemistry. It is filed as in vivo. The note with it: 1 mg/kg administrated orally, two hours post administration, C57BL/6J mice, vs vehicle (water), n = 3/group. The procedure:
Mice C57BL/6J (25 ± 2 g; n = 3 per group) were assigned randomly to receive gavage (v.o.) of either vehicle (water), or 1 mg/kg body weight HP or 1 mg/kg Pep19. All solutions were prepared minutes before use. Two hours post administrations mice were deeply anaesthetized with ketamine and xylazine (i.p.; […], respectively) and perfused transcardially with heparinised saline (5000 UI/kg) in phosphate buffer (PB 0.1 M, pH 7.3) followed by 4% paraformaldehyde in PB 0.1 M. The brains were post fixed and kept in 30% sucrose in 0.1 M PB to cryoprotect the tissue. […]
The regions of interest were identified based on a stereotaxic atlas[45]: arcuate hypothalamic nucleus (Arc), ventromedial hypothalamic nucleus (VMN), periaqueductal grey (PAG), orbitofrontal cortex (VO), accumbens nucleus (Acb). The corresponding images were captured using a Nikon Eclipse E800, camera DC-F1 with Nis Element program. cFos positive cells per section were counted manually using ImageJ (NIH/USA). Results are are expressed as the means ± standard error of the mean (SEM) of c-Fos immunoreactive cells per section in each brain area (5 sections/brain/structure). […] Data were statistically analyzed with GraphPad Prism software (GraphPad Software Inc, San Diego, CA, USA).

Consider `Cc1c(C(=O)NN2CCCCC2)nn(-c2ccc(Cl)cc2Cl)c1-c1ccc(I)cc1` [AM251], for which, in the data set on UCP1 (1 µM, preincubation 2 min, then Pep19 1 µM for 24 h, 3T3-L1 adipocyte cells), the “effect on UCP1 activation by Pep19” value is “prevented UCP1 activation by Pep19”.
Regarding `CN(CCOc1ccc(CC2SC(=O)NC2=O)cc1)c1ccccn1` (stereo not shown) [RSG, Rosiglitazone], the “expression of UCP1 in 3T3-L1 adipose cells” value in the data set on UCP1 (5 µM, positive control) was “increased the expression of UCP1”.
As to `Cc1c(C(=O)NN2CCCCC2)nn(-c2ccc(Cl)cc2Cl)c1-c1ccc(Cl)cc1` [Rimonabant], the “forced swim test: time spent swimming and time spent floating” value with Male Wistar rats is “affected both time spent swimming (empty bars) and time spent floating”. For the same compound, in the data set with DIO Wistar rats [1], the “Body weight (% of control day zero)” value is on record as 111 ± 1.0 (n = 10) % of control day zero, the “Gonadal Adipose Tissue weight” value was 1.75 ± 0.1 (n = 10) g, the “Mesenteric Adipose Tissue weight” value is recorded as 0.86 ± 0.1 (n = 9) g and the “Retroperitoneal Adipose Tissue weight” value is given as 2.10 ± 0.1 (n = 10) g. The “Adiposity Index (total/100 g)” value in the data set on DIO Wistar rats [1] (percentage of the sum of all white adipose tissue pads in relation to total body weight) was 5.85 ± 0.2 (n = 9) total/100 g. The Glucose level in the data set on DIO Wistar rats [2] (glucometer) is 118.3 ± 4.2(n = 9) mg/dl. In the data set on DIO Wistar rats [2] (serum), the “Cholesterol (% of control day zero)” value is listed as 98.51 ± 5.8 (n = 9) % of control day zero and the “Triacylglycerol (% of control day zero)” value was 112 ± 7.7 (n = 10) % of control day zero. In addition, in the data set on DIO Wistar rats [2] (serum, radioimmunoassay), the Insulin is given as 2.71 ± 0.8 (n = 5) ng/mL.
Consider `Cc1c(C(=O)c2cccc3ccccc23)c2cccc3c2n1[C@H](CN1CCOCC1)CO3` [WIN55,212–2], for which the “cannabinoid tetrad, positive control of the chronic experiment” value in the data set with C57BL/6J mice (5 mg/kg i.p. 30 minutes before the experiments, P<0.05) was “affected all parameters evaluated”. For the same compound, in the data set on C57BL/6J mice (5 mg/kg i.p., positive control, p < 0.05), the “cannabinoid tetrad (catalepsy, hot plate, locomotor activity, tail temperature)” value was “affected all the parameters evaluated”.
As for “PVNFKFLSH [HP, Hemopressin, …, inverse agonist of cannabinoid type 1 receptors]”, the “number of cFos positive cells in brain areas (Arc, VMN, PAG, VO, Acb)” value with c-Fos was “increased the number of cFos positive cells in Arc, VMN and PAG”. Further, in the data set on UCP1 (0.1–10 µM, GAPDH loading control), the “expression of UCP1 in 3T3-L1 adipose cells” value is recorded as “increased the expression of UCP1”.
